pIC50: −log10 of the molar value. Structures can show the parent of a compound that is named as a salt.
Columns and labels:
PLC/PRF/5 cells [1] = experiment: MKH delivery into HCC cells: intracellular MKO and MK-4 concentration-time profiles; format: in vitro ADME; conditions: dose 25 μM, trapezoidal rule
Text: (§1) When assessing the delivery of MKH into HCC cells by MKH-ester prodrugs, although the MKH levels in HCC cells should be quantified, it is difficult to determine an accurate MKH level owing to its rapidly oxidative characteristics to MK-4. Concomitant with γ-carboxylation in producing of vitamin K-dependent proteins, MKH is stoichiometrically converted to MK-4 epoxide (MKO), as shown in Figure 1. Thus, MKO levels in HCC cells can reflect the levels of MKH. In addition, the intracellular MK-4 in HCC cells after MKH-DMG treatment is the oxidative product of MKH, which is generated by hydrolysis of MKH-DMG [22]. The estimation rules of MKH in an earlier report were adopted in this study, in which the sum of MKO and MK-4 levels after MKH-ester prodrug treatment was regarded as the MKH level delivered into HCC cells. In MK-4 treatment, the MKH level was assessed by determining the level of MKO.
(§2) MKH delivery into HCC cells with 25 μM MKH-ester derivatives was determined after 1, 3, 6, 12 or 24 h of incubation. […] The AUC0–24h values for MKO (AUCMKO), MK-4 (AUCMK-4) and MKH (AUCMKH) were calculated using the trapezoidal rule (Table 3). […]
(§3) HCC cells were plated at 1.5 × 10^5 cells/well in 6-well plates and allowed to attach for 48 h. […] The protein concentration of the cell homogenate was determined using a BCA protein assay kit. […]

SK-Hep-1 cells [2] = experiment: as above; format: in vitro ADME; conditions: dose 25 μM, trapezoidal rule
Text: as §1, §2, §3

PLC/PRF/5 cells [3] = experiment: Cell viability assay (Cell Titer-Glo); format: cell-based; conditions: for pIC50: Homo sapiens, 95% confidence interval in square brackets
Experimental: (§4) To assess the effects of MKH-ester prodrugs on HCC cell proliferation, DCP-positive (PLC/PRF/5) and DCP-negative (SK-Hep-1) HCC cell lines were treated with various concentrations of MKH-ACT, MKH-DMG, MKH-SUC or MK-4 up to 96 h, and cell viability was determined.
(§5) Cell viability was determined using a previously reported method. Briefly, PLC/PRF/5 and SK-Hep-1 cells were plated at 5.0 × 10^3 cells/well in 96-well plates and allowed to attach for 48 h. MK-4 and MKH-ACT were dissolved in 99.5% ethanol. MKH-SUC was dissolved in DMSO. MKH-DMG was dissolved in sterilized water. Stock solutions of each drug (50 mM) were diluted to the intended final concentrations with medium. Cells were exposed to MK-4, MKH-ACT, MKH-DMG or MKH-SUC for up to 96 h, and cell viability was evaluated using the Cell Titer-Glo Luminescent Cell Viability Assay (Promega, Madison, WI, USA) according to the manufacturer’s instructions. IC50 values were determined by a log [drug] vs. normalized response-variable slope analysis of GraphPad Prism, version 6.0 (GraphPad Software, San Diego, CA, USA).

SK-Hep-1 cells [4] = experiment: Cell viability assay (Cell Titer-Glo); format: cell-based; conditions: for pIC50: Homo sapiens, 95% confidence interval in square brackets
Experimental: as §4, §5

[5] = system: cyclin D1 and CDK4 in PLC/PRF/5 cells; experiment: Western blotting of cell cycle regulatory proteins; format: cell-based; conditions: 24 h after treatment
Experimental: We previously reported that MKH-DMG regulates cell cycle-related proteins as a mechanism of MKH-DMG-induced growth inhibition in PLC/PRF/5, Hep3B and SK-Hep-1 cells. Thus, to clarify the mechanisms of the growth inhibition induced by the MKH-ester prodrugs, we analyzed cell cycle-related proteins using Western blotting (Figure 7).
HCC cells were plated at 1.5 × 10^5 cells/well in 6-well plates and allowed to attach for 48 h. Cells were treated with MK-4, MKH-ACT, MKH-DMG or MKH-SUC for 24 h. Western blotting was performed as described previously.

[6] = set-up: method as in PMID 21574174; conditions: clinical dose (45 mg/day) or double dose (90 mg/day); trial in Japan; cited from earlier work

Structure (SMILES) | melting point | AUC0–24h for MK-4 (PLC/PRF/5 cells [1]) | AUC0–24h for MK-4 (SK-Hep-1 cells [2]) | Inhibition of cell viability of the control (PLC/PRF/5 cells [3]; 40–60 μM, 96 h) | pIC50 (PLC/PRF/5 cells [3]; 72 h) | pIC50 (PLC/PRF/5 cells [3]; 96 h) | Inhibition of cell viability of the control (SK-Hep-1 cells [4]; 60 μM, 72 h) | Inhibition of cell viability of the control (SK-Hep-1 cells [4]; 60 μM, 96 h) | Inhibition of cell viability of the control (SK-Hep-1 cells [4]; 20–40 μM, 96 h) | pIC50 (SK-Hep-1 cells [4]; SK-HEP1, 72 h) | pIC50 (SK-Hep-1 cells [4]; SK-HEP1, 96 h) | Effect on cyclin D1 and CDK4 expression compared with controls [5] | Effect on cumulative recurrence of HCC [6]
CC(C)=CCC/C(C)=C/CC/C(C)=C/CC/C(C)=C/Cc1c(C)c(OC(=O)CCC(=O)O)c2ccccc2c1OC(=O)CCC(=O)O (as salt: succinate) [MKH-SUC, Menahydroquinone-4 1,4-bis hemisuccinate] | 179 to 181 °C |  |  |  |  |  |  |  |  |  |  |  | 
CC(C)=CCC/C(C)=C/CC/C(C)=C/CC/C(C)=C/CC1=C(C)C(=O)c2ccccc2C1=O [MK-4, menaquinone-4, reference compound] |  | 12.2 ± 4.19 nmol·h·mg Protein^−1 | 41.6 ± 9.04 nmol·h·mg Protein^−1 | 30–40% | 3.73 | 4.06 | about 20% | 40% | 20% | 4.10 | 4.05 | did not affect | did not find any statistically significant improvement

— paper PMC6100056, “Antitumor Effects and Delivery Profiles of Menahydroquinone-4 Prodrugs with Ionic or Nonionic Promoiety to Hepatocellular Carcinoma Cells” (Molecules : A Journal of Synthetic Chemistry and Natural …, 2018)
